Experimental data as given in a melting point compilation (Tetko et al.).

Row | Structure (SMILES) | melting point [°C]
1 | CCN1C(=O)CCC1=O | 26
2 | NC(=O)NC=O | 170 to 173
3 | N#CC(c1ccccc1)N1CCOCC1 (stereo not given) | 69 to 71
4 | CN1CCN(Cc2ccccc2I)CC1 | 37 to 38
5 | CCCCCCCCCCCC1=C(O)C(=O)C=C(O)C1=O | 142
6 | Clc1cc(Cl)c(-c2c(Cl)cccc2Cl)c(Cl)c1 | 85
7 | OCC(CO)(CBr)CBr | 113
8 | O[C@H](C1CCCCC1)[C@H](O)C1CCCCC1 | 136 to 141
9 | CC(C1CC1)C(O)(Cn1cncn1)c1ccc(Cl)cc1 (stereo not given) | 108
10 | Cn1ccnc1I | 87 to 89
11 | CC(O)CC(=O)O (stereo not given) | 49
12 | O=C(O)C(F)(F)C(F)(F)C(F)(F)C(F)(F)C(F)(F)C(F)(F)C(F)(F)C(F)F | 67
13 | Nc1ccc(N)cc1 | 146
14 | C=CCOC(=O)CCC | -80
15 | Cc1ncoc1C(=O)O | 239 to 240
16 | Cc1nn(C)c2sc(C(=O)O)cc12 | 260
17 | c1cc2c(cc1N1N=N1)OCO2 | 129
18 | CCC1N(O)C(C)(C)C(C(=O)O)=[N+]1[O-] (stereo not given) | 98.8 to 99
19 | C1OCC2(CO1)COCOC2 | 48.3
20 | OCCC(F)(F)C(F)(F)C(F)(F)C(F)(F)C(F)(F)C(F)(F)C(F)(F)C(F)(F)C(F)(F)C(F)(F)F | 92.7
21 | CCN(CC)C(=S)SC(=S)N(CC)CC | 31
22 | CCc1cc(Cc2cc(CC)c(N)c(CC)c2)cc(CC)c1N | 88 to 91
23 | CCCN | -83
24 | O=C1OCCOC(=O)C2CCCCC2C(=O)OCCOC(=O)C2CCCCC12 (stereo not given) | 210
25 | CCN(CC)C(=O)CSc1ccc(Cl)nn1 | 98

Row | Structure (SMILES) | melting point [°C]
26 | C=CC(=O)OC1CC2CCC1(C)C2(C)C (stereo not given) | 97
27 | Brc1ccc(Oc2cc(Br)c(Br)cc2Br)c(Br)c1 | 82
28 | CC12CCCCC1CCC1C2CCC2(C)C1CCC2(O)C#CCl (stereo not given) | 163
29 | CCC(=O)OC(Cc1ccccc1)(c1ccccc1)C(C)CN(C)C (stereo not given) | 75
30 | Cc1[nH]nc(Cl)c1[N+](=O)[O-] | 111
31 | O=C(Nc1nccs1)C(C(F)(F)F)C(F)(F)F | 148
32 | CC(=O)Nc1ccc([N+](=O)[O-])c(Br)c1 | 145
33 | O=c1[nH]c2ccccc2n1C1CCNCC1 | 183 to 185
34 | COC(=O)[C@H](CSSC[C@@H](C(=O)OC)N1C(=O)[C@@H]2[C@H](C1=O)[C@@H]1C=C[C@H]2C1)N1C(=O)[C@@H]2[C@H](C1=O)[C@@H]1C=C[C@H]2C1 | 100
35 | CCOC(=O)c1c[nH]nc1C(F)(F)F | 145 to 148
36 | N[C@@H](CCC(=O)N[C@@H](CCC(=O)O)C(=O)O)C(=O)O | 179 to 182
37 | O=C(CCCCl)c1ccc(F)cc1 | 6
38 | Nc1nncs1 | 191
39 | O=C(CCl)OC(=O)CCl | 57.5
40 | O=S(=O)(O)CCS(=O)(=O)O | 173
41 | CCOC(=O)C1=C(N)CCCC1 | 70 to 74
42 | CC(C#N)CCC#N (stereo not given) | -45
43 | CC(C)CCC[C@@H](C)[C@H]1CC[C@H]2[C@@H]3CC[C@H]4CC(=O)CC[C@]4(C)[C@H]3CC[C@]12C | 128 to 133
44 | Cc1cc2ncc(S(=O)(=O)C(C)(C)C)c(N)n2n1 | 206 to 208
45 | O=[N+]([O-])c1ccc(Oc2ccc(C(F)(F)F)cc2Cl)cc1 | 68
46 | COC(=O)C=CC(C)=CC=CC(C)=CC=CC=C(C)C=CC=C(C)C=CC(=O)O | 198
47 | CCOP(=S)(OCC)Oc1cc(C)nc(N(CC)CC)n1 | 15
48 | CC(C)CCCC(C)O (stereo not given) | -105
49 | Nc1ncnc2c1ncn2C1OC(COP(=O)(O)OP(=O)(O)OP(=O)(O)O)C(O)C1O (stereo not given) | 176
50 | CNC(=O)c1cc([N+](=O)[O-])cc([N+](=O)[O-])c1 | 148 to 149

Results, then the compound that gave them:

Row | melting point [°C] | Structure (SMILES)
51 | 106 | OC1(c2ccc(Cl)c(C(F)(F)F)c2)CCN(CCCC(c2ccc(F)cc2)c2ccc(F)cc2)CC1
52 | 100 | CC(C)(Oc1ccc(Cl)cc1)C(=O)NC(=O)NCN1CCOCC1
53 | 97 | NCc1ccccc1Sc1ccccc1CO
54 | 69 to 70 | COc1ccc(C=CC(=O)c2ccccc2)c(OC)c1
55 | 76 | C=C1C(=O)OC2CC3(C)CCCC(C)C3=CC12 (stereo not given)
56 | 98 to 100 | FC(F)(F)c1cc(Cl)c2cc(Br)ccc2n1
57 | 143 to 144 | CN(C)c1ccc(C2Nn3c(COc4ccccc4)nnc3S2)cc1 (stereo not given)
58 | 300 | O=C1Nc2ccccc2C1=Nn1c(S)nnc1C(F)(F)F
59 | 137 | Cc1ccncc1/C=C/C(=O)O
60 | 132 | CC(=O)CC(=O)Nc1ccc(Cl)cc1
61 | 262 | O=C(O)c1ccncc1C(=O)O
62 | 81 | Cc1ccccc1NC(=O)c1cnc(C(C)(C)C)cn1
63 | 89 | O=C(O)Cc1ccc(Cl)cc1C(F)(F)F
64 | 110 to 112 | Cc1ccc(C(=O)c2cc3c(cc2Br)OCCO3)cc1
65 | 172 to 175 | NC(=O)NCc1ccc(F)cc1
66 | 147 to 149 | CCOC(=O)c1c(C)n(OC)c2ccc3nonc3c12
67 | 192 | CC(=O)Nc1ccc(C=Cc2ccccc2)c([N+](=O)[O-])c1
68 | 220 to 222 | COc1cc(-c2n[nH]c(=S)n2/N=C/c2ccccc2O)cc(OC)c1OC
69 | 200 to 202 | O=C(NCc1ccc(Cl)cc1)c1cc([N+](=O)[O-])cc([N+](=O)[O-])c1
70 | 117 to 120 | c1ccc2c(c1)OCCOCCOCCOc1ccccc1OCCO2
71 | 109 to 110 | O=Cc1c(-c2ccccc2)nn(-c2ccccc2)c1Cl
72 | 197 to 199 | CN(C)c1ccc(C2Nn3c(nnc3-c3cccc([N+](=O)[O-])c3)S2)cc1 (stereo not given)
73 | 312 | O=C(Nc1ccc([N+](=O)[O-])cc1)Nc1ccc([N+](=O)[O-])cc1
74 | 119 to 122 | CCOC(=O)c1sc(SCc2ccccc2)c2c1CC(C)(C)CC2=O
75 | 130 | CCOC(=O)CN(CCCN(CC(=O)OCC)S(=O)(=O)c1ccc(C)cc1)S(=O)(=O)c1ccc(C)cc1

Row | melting point [°C] | Structure (SMILES)
76 | 88 to 89 | O=C(O)c1c(F)cccc1C(F)(F)F
77 | 93 | COc1ccc(C(=O)c2cccc(C)c2)cc1OC
78 | 85 to 89 | ON=C(Cl)c1c(Cl)cccc1Cl
79 | 118 to 123 | O=CC(C=O)c1ccccc1[N+](=O)[O-]
80 | 100 | CCC(=O)c1ccc(OCc2ccccc2)cc1
81 | 78 | CC1(O)Cc2ccccc21 (stereo not given)
82 | 74 to 78 | Cc1ccc2ccc(Cl)cc2n1
83 | 250 | O=Cc1ccc(O)c(C(=O)O)c1
84 | 160 | O=Cc1cc(O)cc(O)c1
85 | 125 | OCc1sc(-c2ccccc2)nc1-c1ccccc1
86 | 111 | CC(C)(C)OC(=O)N[C@@H](CC(=O)OCc1ccccc1)C(=O)O
87 | 240 | N#C/C(=N/Nc1ccc(Cl)cc1)c1nc(-c2ccc(Cl)cc2)cs1
88 | 196 | COc1ccc2sc(S)nc2c1
89 | 166 | Cc1ccc(C(N)=O)cc1[N+](=O)[O-]
90 | 127 | COc1cc(C)c(Cl)cc1S(=O)(=O)Cl
91 | 203 | Nc1ccncc1[N+](=O)[O-]
92 | 43 | c1ccc2nsnc2c1
93 | 129 | CC(c1ccccc1)C(C(=O)O)c1ccccc1 (stereo not given)
94 | 196 to 198 | Clc1ccc(C2Nn3c(nnc3-c3ccccc3)S2)cc1 (stereo not given)
95 | 190 | c1ccc(-c2ccc(N=C(CNc3ccc(-c4ccccc4)cc3)Nc3ccc(-c4ccccc4)cc3)cc2)cc1
96 | 144 | O=[N+]([O-])c1ccccc1C(Cl)C(Cl)c1ccccn1 (stereo not given)
97 | 207 to 208 | O=C(COc1ccccc1)c1ccc(O)cc1O
98 | 154 | CO[C@]12C(=O)CCc3cccc(c31)Oc1ccc3ccccc3c12
99 | 73.5 | O=CN(c1ccccc1)c1ccccc1
100 | 236 | Nc1ncnc(Nc2ccccc2)n1

Row | melting point [°C] | Structure (SMILES)
101 | 84 | N#Cc1ncccc1Cl
102 | 121 | O=C1Cc2cccc3cccc1c23
103 | 85 | Cc1ccc(C(c2ccc(C)o2)c2cc(Cl)ccc2O)o1
104 | 145 | O=C(NC1CCCCC1)c1ccccc1
105 | 142 | CC(=O)Oc1ccccc1C(=O)O
106 | 49 to 56 | O=C1c2ccccc2C(=O)N1CCCCCCCCBr
107 | 154 to 157 | CC(=NOCc1cccc(C(=O)O)c1)c1ccc(Cl)cc1
108 | 93 to 94 | CN1CCCN(c2ccc(C#N)cc2)CC1
109 | 81 | Cn1ccc2ccc(C=O)cc21
110 | 290 | OC1NN(c2ccccc2)C(O)C1=Cc1ccc2c(c1)OCO2 (stereo not given)
111 | 270 | N#C/C(=N\Nc1ccccc1[N+](=O)[O-])c1nc2ccccc2[nH]1
112 | 132 | Nc1ccccc1C(=O)Nc1ccccc1
113 | 156 to 160 | CC(C)(C)C1=CC(=Cc2cc(C(C)(C)C)c(O)c(C(C)(C)C)c2)C=C(C(C)(C)C)C1=O
114 | 175 | O=C(O)c1ccc(C(F)(F)F)c(F)c1
115 | 45 to 50 | Sc1c(Cl)cccc1Cl
116 | 146 | CCOC(=O)/C(=N\Nc1cc(Cl)ccc1Cl)C(=O)C(F)(F)F
117 | 73 | NNC(=O)c1ccccc1F
118 | 88 | Cc1ccc(S(C)(=O)=O)cc1
119 | 152 | CCc1cn(C2CC(O)C(CO)O2)c(=O)[nH]c1=O (stereo not given)
120 | 103 | Oc1ccc(Br)c(O)c1
121 | 53 | Cc1ccc2c(c1)CC2=O
122 | 96 | CC12CCC(C(COC(=O)c3ccccc3)C1=O)C2(C)C (stereo not given)
123 | 173 | O=C(C1=NOC2C(=O)N(c3cccc([N+](=O)[O-])c3)C(=O)C12)c1ccccc1 (stereo not given)
124 | 223 to 229 | Clc1ccc2[nH]c(C(Cl)(Cl)Cl)nc2c1
125 | 113 to 114 | O=Cc1cc(F)cc2c1OCOC2
